Source: paper PMC10533412, “Phosphoantigens glue butyrophilin 3A1 and 2A1 to activate Vγ9Vδ2 T cells” (Nature, 2023)
Values joined by “and” are separate entries in the source; they are usually repeats but may differ in a detail not shown here. Identical values can stand only once. Like-named read-outs stand apart in the source and are kept apart here.

Columns and labels:
[1] = tested on: BTN2A−/− MIA PaCa-2 (BTN2A1/BTN2A2 KO) cells; assay: Cell killing assay with BTN2A−/− MIA PaCa-2 (BTN2A1/BTN2A2 KO) cells expressing BTN2A1/BTN2A2 variants; details: for Cytotoxicity of Vγ9Vδ2 T cells (percentage of specific lysis): replicates; for EC50: Homo sapiens
Method: (§1) MIA PaCa-2 cells were infected with lentivirus bearing luciferase transgene. Luciferase-positive cells were plated at 5.0 × 10^3 cells per well in 384-well plates 1 day before transfection. All plasmids were transfected into BTN2A^−/− MIA PaCa-2 (BTN2A1/BTN2A2 KO) cells using Lipofectamine 2000 reagent. […] Stable-lite luciferase (Vazyme) was added to each well and the luciferase signal was immediately measured by using the PerkinElmer EnVision microplate reader.
(§2) Percentage of lysis was calculated using the following equation: percentage of specific lysis = (maximum luciferase − experimental luciferase)/maximum luciferase × 100.

MIA PaCa-2 cells = assay: Cell killing assay: cytotoxicity of Vγ9Vδ2 T cells towards pAg- or zoledronate-treated MIA PaCa-2 cells (luciferase); format: cell-based, human; details: for Bottom (best-fit value) / Top (best-fit value) / Span (best-fit value): Fig. 1b; for Bottom (best-fit value) / Top (best-fit value): log(agonist) vs. response (three parameters); for EC50: Homo sapiens
Method: as §1, §2

[2] = Ext. Fig. 6d, cells expressing 2A2 W374R/M506T, three-parameter fit
[3] = Ext. Fig. 6d, cells expressing 2A2 W374R, three-parameter fit
[4] = Ext. Fig. 6d, cells expressing 2A2 WT, three-parameter fit

C/C(=C\COP(=O)(O)OP(=O)(O)O)CO [Compound 1, (E)-4-hydroxy-3-methylbut-2-en-1-yl diphosphate]
Span (best-fit value) [1, 2]: 27.17
Top (best-fit value) [1, 2]: 48.19
Bottom (best-fit value) [1, 3]: 17.13
Span (best-fit value) [1, 3]: 18.41
Top (best-fit value) [1, 3]: 35.54
Bottom (best-fit value) [1, 4]: 21.2
Span (best-fit value) [1, 4]: 14.17
Top (best-fit value) [1, 4]: 35.37
Cytotoxicity of Vγ9Vδ2 T cells (percentage of specific lysis) ([1]; HMBPP log concentration -4, 2A1 WT cells): 70.1646% and 71.1001% and 71.513%
Cytotoxicity of Vγ9Vδ2 T cells (percentage of specific lysis) ([1]; HMBPP log concentration -4, 2A1 ∆C cells): 41.112% and 41.0173% and 41.0139%
Cytotoxicity of Vγ9Vδ2 T cells (percentage of specific lysis) ([1]; HMBPP log concentration -5, 2A1 WT cells): 64.2316% and 64.2674% and 65.8786%
Cytotoxicity of Vγ9Vδ2 T cells (percentage of specific lysis) ([1]; HMBPP log concentration -5, 2A1 ∆C cells): 23.0147% and 25.2364% and 24.5941%
Cytotoxicity of Vγ9Vδ2 T cells (percentage of specific lysis) ([1]; HMBPP log concentration -6, 2A1 WT cells): 56.2518% and 58.0065% and 60.1294%
Cytotoxicity of Vγ9Vδ2 T cells (percentage of specific lysis) ([1]; HMBPP log concentration -6, 2A1 ∆C cells): 18.5277% and 22.0034% and 20.9688%
Cytotoxicity of Vγ9Vδ2 T cells (percentage of specific lysis) ([1]; HMBPP log concentration -7, 2A1 WT cells): 48.0249% and 51.1234% and 56.1132%
Cytotoxicity of Vγ9Vδ2 T cells (percentage of specific lysis) ([1]; HMBPP log concentration -7, 2A1 ∆C cells): 26.9403% and 18.9725% and 19.5843%
Cytotoxicity of Vγ9Vδ2 T cells (percentage of specific lysis) ([1]; HMBPP log concentration -8, 2A1 WT cells): 44.2956% and 44.0311% and 51.5761%
Cytotoxicity of Vγ9Vδ2 T cells (percentage of specific lysis) ([1]; HMBPP log concentration -8, 2A1 ∆C cells): 23.996% and 19.5568% and 15.4363%
Cytotoxicity of Vγ9Vδ2 T cells (percentage of specific lysis) ([1]; HMBPP log concentration -9, 2A1 WT cells): 35.2231% and 37.6052% and 42.4431%
Cytotoxicity of Vγ9Vδ2 T cells (percentage of specific lysis) ([1]; HMBPP log concentration -9, 2A1 ∆C cells): 20.428% and 19.6068% and 15.0611%
Cytotoxicity of Vγ9Vδ2 T cells (percentage of specific lysis) ([1]; HMBPP log concentration -10, 2A1 WT cells): 29.643% and 30.0604% and 32.9175%
Cytotoxicity of Vγ9Vδ2 T cells (percentage of specific lysis) ([1]; HMBPP log concentration -10, 2A1 ∆C cells): 15.4573% and 16.0868% and 15.1497%
Cytotoxicity of Vγ9Vδ2 T cells (percentage of specific lysis) ([1]; HMBPP log concentration -11, 2A1 WT cells): 26.3218% and 25.6969% and 24.6851%
Cytotoxicity of Vγ9Vδ2 T cells (percentage of specific lysis) ([1]; HMBPP log concentration -11, 2A1 ∆C cells): 16.8095% and 15.8259% and 16.2096%
EC50 ([1]; MIA PaCa-2, 144 h, Ext. Fig. 6d, cells expressing 2A1 WT, three-parameter fit): 90.3 nM
EC50 ([1]; MIA PaCa-2, 144 h, Ext. Fig. 6d, cells expressing 2A2 G352Y354QR/M506T/W374R, three-parameter fit): 176 nM
EC50 ([1]; MIA PaCa-2, 144 h, Ext. Fig. 6d, cells expressing 2A2 M506T, three-parameter fit): 266 nM
EC50 ([1]; MIA PaCa-2, 144 h, Ext. Fig. 6d, cells expressing 2A2 W374R/M506T, three-parameter fit): 191 nM
EC50 ([1]; MIA PaCa-2, 144 h, read-out: LogEC50, Ext. Fig. 6d (converted), cells expressing 2A1 WT, log(Concentration)/M, three-parameter fit): 90.2 nM
EC50 ([1]; MIA PaCa-2, 144 h, read-out: LogEC50, Ext. Fig. 6d (converted), cells expressing 2A2 G352Y354QR/M506T/W374R, log(Concentration)/M, three-parameter fit): 176 nM
EC50 ([1]; MIA PaCa-2, 144 h, read-out: LogEC50, Ext. Fig. 6d (converted), cells expressing 2A2 M506T, log(Concentration)/M, three-parameter fit): 267 nM
EC50 ([1]; MIA PaCa-2, 144 h, read-out: LogEC50, Ext. Fig. 6d (converted), cells expressing 2A2 W374R/M506T, log(Concentration)/M, three-parameter fit): 191 nM
EC50 ([1]; MIA PaCa-2, read-out: EC50 (nM), MIA PaCa-2 cell lysis by Vγ9Vδ2 T cells exposed to HMBPP, 2A1 WT): 90.3 nM
EC50 ([1]; MIA PaCa-2, read-out: EC50 (nM), MIA PaCa-2 cell lysis by Vγ9Vδ2 T cells exposed to HMBPP, active chimera bearing G352Y354QR/ M506T/W374R): 176 nM
EC50 ([1]; MIA PaCa-2, read-out: EC50 (nM), MIA PaCa-2 cell lysis by Vγ9Vδ2 T cells exposed to HMBPP, active chimera bearing W374R/M506T): 191 nM
EC50 ([1]; MIA PaCa-2, read-out: EC50 (μM) of Vγ9Vδ2 T cells towards BTN2A−/− MIA PaCa-2 in the presence of HMBPP, NT cells): 12800 nM
EC50 ([1]; MIA PaCa-2, read-out: EC50 (μM) of Vγ9Vδ2 T cells towards BTN2A−/− MIA PaCa-2 in the presence of HMBPP, transfected 2A1 WT): 800 nM
EC50 ([1]; MIA PaCa-2, read-out: EC50 (μM) of Vγ9Vδ2 T cells towards BTN2A−/− MIA PaCa-2 in the presence of HMBPP, transfected 2A1 variant D455G/E457R): 61100 nM
EC50 ([1]; MIA PaCa-2, read-out: EC50 (μM) of Vγ9Vδ2 T cells towards BTN2A−/− MIA PaCa-2 in the presence of HMBPP, transfected 2A1 variant R477A): 19700 nM
EC50 ([1]; MIA PaCa-2, read-out: EC50 (μM) of Vγ9Vδ2 T cells towards BTN2A−/− MIA PaCa-2 in the presence of HMBPP, transfected 2A1 variant T510A): 1.17e+06 nM
EC50 ([1]; MIA PaCa-2, read-out: EC50 (μM) of Vγ9Vδ2 T cells towards BTN2A−/− MIA PaCa-2 in the presence of HMBPP, transfected 2A1 variant T510M): 97700 nM
EC50 ([1]; MIA PaCa-2, read-out: EC50 (μM) of Vγ9Vδ2 T cells towards BTN2A−/− MIA PaCa-2 in the presence of HMBPP, transfected 2A1 variant V511A): 130000 nM
EC50 ([1]; MIA PaCa-2, read-out: EC50 (μM) of Vγ9Vδ2 T cells towards BTN2A−/− MIA PaCa-2 in the presence of HMBPP, transfected 2A1 variant V511D): 12500 nM
EC50 ([1]; MIA PaCa-2, read-out: EC50 (μM) of Vγ9Vδ2 T cells towards BTN2A−/− MIA PaCa-2 in the presence of HMBPP, transfected 2A1 variant V511W): 389000 nM
EC50 ([1]; MIA PaCa-2, read-out: EC50 (μM) of Vγ9Vδ2 T cells towards BTN2A−/− MIA PaCa-2 in the presence of HMBPP, transfected 2A1 variant ΔC): 17500 nM
EC50 ([1]; MIA PaCa-2, read-out: EC50, MIA PaCa-2 lysis, BTN2A−/− MIA PaCa-2 stably expressing BTN2A1 WT): 12.9 nM
EC50 ([1]; MIA PaCa-2, read-out: EC50, best-fit value, 2A1 WT, unit not printed in the sheet (b166 prints […])): 12.9 nM
EC50 ([1]; MIA PaCa-2, read-out: EC50, best-fit value, 2A1 ∆C, unit not printed in the sheet (b166 prints […])): 43900 nM
Bottom (best-fit value) (MIA PaCa-2 cells; 2A1 KO cells): 2.135
Top (best-fit value) (MIA PaCa-2 cells; 2A1 KO cells): 50.59
Span (best-fit value) (MIA PaCa-2 cells; 2A1 KO cells, three-parameter fit): 48.45
Bottom (best-fit value) (MIA PaCa-2 cells; 2A1 WT cells): 19.47
Top (best-fit value) (MIA PaCa-2 cells; 2A1 WT cells): 76.92
Span (best-fit value) (MIA PaCa-2 cells; 2A1 WT cells, three-parameter fit): 57.45
EC50 (MIA PaCa-2 cells; MIA PaCa-2, BTN2A1 WT MIA PaCa-2 cells, read-out: EC50 for HMBPP-mediated MIA PaCa-2 cell killing): 6.5e-09 M
EC50 (MIA PaCa-2 cells; MIA PaCa-2, BTN2A1−/− (KO) MIA PaCa-2 cells, read-out: EC50 for HMBPP-mediated MIA PaCa-2 cell killing): 3.6e-05 M
EC50 (MIA PaCa-2 cells; MIA PaCa-2, Fig. 1b, 2A1 KO cells, log(Concentration)/M, three-parameter fit, read-out: LogEC50 (converted)): 3.6e-05 M
EC50 (MIA PaCa-2 cells; MIA PaCa-2, Fig. 1b, 2A1 KO cells, three-parameter fit, read-out: EC50): 3.6e-05 M
EC50 (MIA PaCa-2 cells; MIA PaCa-2, Fig. 1b, 2A1 WT cells, log(Concentration)/M, three-parameter fit, read-out: LogEC50 (converted)): 6.5e-09 M
EC50 (MIA PaCa-2 cells; MIA PaCa-2, Fig. 1b, 2A1 WT cells, three-parameter fit, read-out: EC50): 6.5e-09 M
EC50 (MIA PaCa-2 cells; MIA PaCa-2, Supplementary Table 4, read-out: EC50 (M) for MIA PaCa-2 cell lysis mediated by HMBPP analogs and Vγ9Vδ2 T cells): 3.87e-09 M
